For orientation: efflux ratio means the permeability from basolateral to apical divided by that in the opposite direction, in the common usage. Usually solubility (kinetic) stands for solubility judged after dilution from a stock solution rather than from solid. For orientation: clearance means the rate of elimination divided by the concentration. A low value points to a low capacity for elimination. By half-life is commonly meant the time in which the quantity being followed falls by half. High values mean slow loss, low ones fast loss. In general, Tmax refers to the time from dosing to the highest level. The term bioavailability denotes the share of a dose that reaches the circulation, judged against a reference dose that is usually intravenous. A lower bioavailability goes with little systemic uptake.

The target of series [1] is T1, P-gp (Mus musculus, UniProt P21447).
T1 construct: host or cells: LLC-PK1 (porcine kidney epithelial) cells
T1 sequence (P21447 whole entry): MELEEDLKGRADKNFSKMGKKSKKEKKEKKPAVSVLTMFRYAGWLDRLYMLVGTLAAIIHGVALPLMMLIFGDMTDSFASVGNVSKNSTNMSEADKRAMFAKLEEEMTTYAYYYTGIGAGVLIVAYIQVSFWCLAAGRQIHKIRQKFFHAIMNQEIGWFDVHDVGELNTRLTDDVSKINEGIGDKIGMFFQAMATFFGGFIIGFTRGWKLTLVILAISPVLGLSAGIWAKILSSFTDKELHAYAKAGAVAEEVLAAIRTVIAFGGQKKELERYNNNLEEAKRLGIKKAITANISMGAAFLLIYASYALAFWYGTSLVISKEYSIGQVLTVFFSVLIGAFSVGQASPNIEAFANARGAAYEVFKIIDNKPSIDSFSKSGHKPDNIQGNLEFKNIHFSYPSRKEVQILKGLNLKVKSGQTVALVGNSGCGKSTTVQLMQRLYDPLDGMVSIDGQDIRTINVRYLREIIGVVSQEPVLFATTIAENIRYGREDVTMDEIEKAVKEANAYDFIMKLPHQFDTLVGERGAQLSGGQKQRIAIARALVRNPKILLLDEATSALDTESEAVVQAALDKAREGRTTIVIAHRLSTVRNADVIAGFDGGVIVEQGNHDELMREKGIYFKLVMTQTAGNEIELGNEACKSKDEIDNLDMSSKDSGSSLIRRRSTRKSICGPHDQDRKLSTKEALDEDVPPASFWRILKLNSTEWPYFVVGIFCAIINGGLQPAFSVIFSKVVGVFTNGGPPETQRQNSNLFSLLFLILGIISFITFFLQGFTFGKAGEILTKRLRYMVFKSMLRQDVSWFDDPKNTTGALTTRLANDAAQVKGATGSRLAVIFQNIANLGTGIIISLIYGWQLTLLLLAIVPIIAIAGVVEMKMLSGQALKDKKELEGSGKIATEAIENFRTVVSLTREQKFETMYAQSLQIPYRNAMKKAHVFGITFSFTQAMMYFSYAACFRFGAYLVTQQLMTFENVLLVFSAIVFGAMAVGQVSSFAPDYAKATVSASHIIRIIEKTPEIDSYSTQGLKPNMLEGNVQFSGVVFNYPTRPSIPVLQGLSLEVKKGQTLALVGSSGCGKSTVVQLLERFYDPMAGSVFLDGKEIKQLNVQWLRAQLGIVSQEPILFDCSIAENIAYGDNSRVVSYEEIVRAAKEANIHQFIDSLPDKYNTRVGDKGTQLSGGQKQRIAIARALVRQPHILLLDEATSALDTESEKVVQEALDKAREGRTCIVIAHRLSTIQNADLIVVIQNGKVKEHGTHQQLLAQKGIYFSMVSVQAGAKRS
Kind of series: P-gp assay in transfected LLC-PK1 cells. It is filed as in vitro ADME. On the procedure:
(§1) The P-gp assay was conducted as previously described. Briefly, transfected porcine kidney epithelial (LLC-PK1) cells expressing human or mouse P-gp were cultured on 96-well semi-permeable filter membrane plates (Millipore, Darmstadt, Germany). LLC-PK1 cells were provided by Dr A. Schinkel from The Netherlands Cancer Institute (Amsterdam, The Netherlands). Cells formed a polarized monolayer with tight junctions that acted as a barrier between apical and basolateral compartments. P-gp was expressed in the apical-facing membrane of the monolayer (tightness confirmed using Lucifer yellow). […] The effect of P-gp was measured by expressing the efflux ratio of the unidirectional A > B and B > A Papp values. The mean permeability (A > B and B > A Papp) was determined in the absence of P-gp via the addition of the selective P-gp inhibitor, zosuquidar.

In series [2] the target is T2, P-gp (Homo sapiens, UniProt P08183).
T2 construct: host or cells: LLC-PK1 (porcine kidney epithelial) cells
T2 sequence (P08183 whole entry): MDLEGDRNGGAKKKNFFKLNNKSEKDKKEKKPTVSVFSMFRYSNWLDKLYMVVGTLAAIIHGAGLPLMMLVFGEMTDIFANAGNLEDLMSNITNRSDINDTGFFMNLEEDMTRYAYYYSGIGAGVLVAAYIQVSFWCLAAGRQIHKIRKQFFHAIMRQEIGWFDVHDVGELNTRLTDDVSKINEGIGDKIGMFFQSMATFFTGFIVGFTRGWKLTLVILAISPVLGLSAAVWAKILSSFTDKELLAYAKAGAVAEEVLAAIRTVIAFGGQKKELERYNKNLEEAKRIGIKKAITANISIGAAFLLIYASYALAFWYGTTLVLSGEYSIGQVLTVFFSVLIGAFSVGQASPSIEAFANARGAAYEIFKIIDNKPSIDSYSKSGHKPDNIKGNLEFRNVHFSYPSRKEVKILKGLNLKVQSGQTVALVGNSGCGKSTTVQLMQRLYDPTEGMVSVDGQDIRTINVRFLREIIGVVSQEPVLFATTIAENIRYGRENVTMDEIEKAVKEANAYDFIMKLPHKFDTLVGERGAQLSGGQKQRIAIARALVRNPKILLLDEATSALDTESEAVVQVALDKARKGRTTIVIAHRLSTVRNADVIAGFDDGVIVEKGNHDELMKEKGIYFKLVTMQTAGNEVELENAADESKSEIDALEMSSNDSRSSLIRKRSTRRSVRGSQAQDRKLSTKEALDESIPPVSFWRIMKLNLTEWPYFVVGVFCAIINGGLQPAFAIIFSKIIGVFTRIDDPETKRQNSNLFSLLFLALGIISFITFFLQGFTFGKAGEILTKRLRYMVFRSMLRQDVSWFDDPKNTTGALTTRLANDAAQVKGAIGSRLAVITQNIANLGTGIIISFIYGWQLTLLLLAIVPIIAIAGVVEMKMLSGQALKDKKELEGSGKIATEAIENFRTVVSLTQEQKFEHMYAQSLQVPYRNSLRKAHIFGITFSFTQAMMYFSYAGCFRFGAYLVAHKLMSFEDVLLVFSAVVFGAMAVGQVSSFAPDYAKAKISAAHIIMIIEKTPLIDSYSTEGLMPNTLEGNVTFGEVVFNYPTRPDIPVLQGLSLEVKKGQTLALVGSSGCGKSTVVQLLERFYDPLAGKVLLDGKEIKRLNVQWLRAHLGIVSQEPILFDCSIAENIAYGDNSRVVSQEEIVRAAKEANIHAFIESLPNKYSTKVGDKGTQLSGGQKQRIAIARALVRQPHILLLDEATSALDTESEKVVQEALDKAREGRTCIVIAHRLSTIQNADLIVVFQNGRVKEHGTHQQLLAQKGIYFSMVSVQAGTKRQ
In words: P-gp assay in transfected LLC-PK1 cells. It is filed as in vitro ADME. The procedure: as §1

A short description of series [3]: Kinetic lyophilization solubility assay (LYSA). To be noted: aqueous buffer, 0.05 M PBS pH 6.5. It counts as physicochemical. The procedure:
RG7774 samples were prepared in duplicate from 10 mM DMSO stock solutions. DMSO was evaporated for 1 h using a centrifugal vacuum evaporator (Genevac Technologies, UK) and the residue was dissolved in 0.05 M PBS (pH 6.5), stirred for 1 h, and shaken for 2 h. Solutions were filtered 12 h later using a microtiter filter plate (MSDV N65; Merck Millipore, MA, USA). The filtrate and its 1:10 dilution were analyzed by direct ultraviolet (UV) measurement or high-performance liquid chromatography with UV spectroscopy (HPLC-UV). […] The measurement range for a compound with molecular weight 500 was 0 to 666 μg/mL.

The subject of series [4] is STZ-induced diabetes retinal vascular permeability. Kind of series: Rats with STZ-induced type 1 diabetes (fluorophotometry). It is filed as in vivo, Long Evans rats. Particulars: STZ diabetic rats, 10 mg/kg daily oral gavage, 6 weeks after STZ, normalized to plasma. On the procedure: Twenty-six male Long Evans rats (outbred) (Charles River Laboratories, Sulzfeld, Germany) aged 7 weeks and weighing 250–270 g at the beginning of the study were housed in individually ventilated cages with a maximum density of n = 2 rats per cage with the same sex and monitored daily. Bedding for diabetic animals was changed daily. The room was kept at 20°C–24°C with 50%–60% humidity and a 12/12 h light-dark cycle. Rats received a standard diet and water ad libidum, in addition to soaked food or soft diet. For animal welfare and for dosing purposes, animals were weighed every other day. Rats were sacrificed if weight loss was greater than 20% of the original weight, or more than 20% of body gain within 1 week.
Animals were fasted overnight and injected the following morning with IP 60 mg/kg (60 mg/mL at 1 mL/kg) STZ as reported previously ([Kim et al., 2007]; [Furman, 2015]) in 0.05 M sodium citrate buffer (pH 4.5). […]
To quantify fluorotron measurements, raw data were generated, exported as .txt files, and plotted using Microsoft Excel. The average AUC was calculated for 5 steps in the region of the scans corresponding to the vitreous peak. […] All data are expressed as mean ± SEM ng/mL ratios of vitreous:plasma fluorescein. Fluorophotometry data were analyzed using 2-way ANOVA followed by Newman–Keuls multiple comparisons test. […]

A short description of series [5]: Plasma PK profile in mice. It counts as in vivo, C57BL/6J mice. On the procedure:
The plasma PK profile of RG7774 was assessed in adult male C57BL/6J mice and female Wistar rats (Charles River, Cologne, Germany) housed in a controlled environment (temperature, humidity, and 12 h light/dark cycle) with unrestricted access to food and water. The ocular PK profile of RG7774 was assessed in adult female […] rats (Charles River, Mattawan, MI, United States) housed in a controlled environment (21°C–22°C temperature, 40%–60%, humidity, and 12 h light/dark cycle) with unrestricted access to food and water and conducted according to local regulations by EyeCRO (Ann Arbor, MI, United States).
In the first study (animal permission #1857), mice received RG7774 as an intravenous (IV) bolus at 1 mg/kg (n = 6) or as an oral (PO) dose at 3 mg/kg (n = 5). In the second study (animal permission #2373), rats received RG7774 as an IV bolus at 10 mg/kg (n = 4) or via gavage at 30 mg/kg (n = 3). Blood samples were collected 0.1, 1, 3, 10, and 24 h post-dose under deep anesthesia with 3%–5% isoflurane in 100% O2. Samples were collected sublingually from mice, from the tail vein in rats or via heart puncture (terminal) into anticoagulant-coated polypropylene tubes and placed on ice. Plasma was prepared within 30 min of collection by centrifugation at 3,000 g for 5 min at 4°C and was immediately frozen. RG7774 concentrations in plasma were determined using LC-MS/MS. PK parameters were estimated by non-compartmental analysis of plasma data using Phoenix WinNonlin software (Certara, Princeton, NJ, United States).

Where [6] appears, read: male, C57BL/6J, mouse, plasma, IV 1 mg/kg.
Setting [7] is: male, C57BL/6J, mouse, plasma, PO 3 mg/kg.

Converted amounts (≈) assume the structure as drawn.

With `Cn1nnnc1Cn1nnc2c(N3CC[C@H](O)C3)nc(C(C)(C)C)nc21` [RG7774, (S)-1-(5-tert-butyl-3-[(1-methyl-1H-tetrazol-5-yl)methyl]-3H-[1,2,3]triazolo[4,5-d]pyrimidin-7-yl)pyrrolidin-3-ol], the efflux ratio at 3 h on P-gp [1] turned out to be 16.2. Further, the efflux ratio at 3 h on P-gp [2] stood at 2.5. In series [3], this molecule returned a kinetic solubility of 285 µg/mL (≈ 795 µM). In series [4], this molecule returned a vitreous fluorescein of 25.6 ng/mL. Besides, the AUCinf/dose in series [5] (IV 1 mg/kg) is given as 1,230 ng h^–1 ml^–1 (mg kg^−1) ^−1. For the same molecule, in series [5] (PO 3 mg/kg), the AUCinf/dose is 490 ng h^–1 ml^–1 (mg kg^−1) ^−1 and the Cmax/dose is given as 487 ng ml^–1 (mg kg^–1) ^−1. In series [5] (setting [6]), this molecule showed a clearance of 13.2 mL/min/kg and a half-life of 9.04 h. Further, in series [5] (male, C57BL/6J, mouse, plasma, IV 1 mg/kg, read-out: Vss), the Vd was 3.7 L/kg. Further, in series [5] (setting [7]), the time of peak concentration (Tmax) was 0.25 h, the bioavailability came to 42.2% and the half-life was 2.1 h.

(Values after paper PMC11272598, “RG7774 (Vicasinabin), an orally bioavailable cannabinoid receptor 2 (CB2R) agonist, decreases retinal vascular permeability, leukocyte adhesion, and ocular inflammation in animal models” (Frontiers in Pharmacology, 2024).)
